Source: patent US20240019429A1, “METHODS AND RELATED ASPECTS FOR DETERMINING BINDING KINETICS OF LIGANDS” (ARIZONA BOARD OF REGENTS ON BEHALF OF ARIZONA STATE …, priority 2022, published 2024)
Blank lines part the entries; values can stand above or below the compound they belong to.

Legend:
[1] = molecular target: KcsA-Kv1.3; assay: SPR-OBL binding kinetics of small molecules to KcsA-Kv1.3 nanodisc on streptavidin OBL; conditions: AC response, 40 times diluted nanodisc buffer
From the text: Unlike macromolecules that are inclined to have both mass and charge changes upon binding, small molecules are more likely to have charge change with little mass change. As such, measuring charge could be more sensitive for small molecules. To highlight this advantage of SRR-OBL and its potential for drug screening, we measured two small molecule drug candidates, compound 1 and PAP-1, binding to their target KcsA-Kv1.3, which is a chimeric membrane protein. The KcsA-Kv1.3 was encapsulated in a self-assembled phospholipid bilayer nanodisc that provides a nativelike environment for the membrane proteins to retain the structure and function. Despite the importance of membrane protein as drug targets, measuring the interaction with small molecule drug candidates has been challenging for traditional mass-sensitive technologies, due to the huge mass difference between the small molecule and the membrane protein complex. Before adding samples, 40 times diluted nanodisc buffer was flowed over the surface for 200 seconds to establish the baseline. The binding of the small molecule to KcsA-Kv1.3 nanodisc caused a charge change on the OBL, which leads to an AC response. As mentioned before, small molecule would only introduce a minor mass change. Therefore, the DC response of OBL is not obvious. […] According to a previous study that temperature would influence the binding kinetics between KcsA-Kv1.3 and small molecule due to the effect on the flexibility of lipid bilayer, we repeated the experiment under 30° C. and found the kinetic constants became (2.7±0.5)×10^4 M^−1s^−1, (1.9±0.4)×10^−2 s^−1 and 6.8±1.2×10 2 nM, as shown in FIG. 6c. The results are close to the value in literature. […] To verify the binding was specific, we performed control experiments by directly injecting compound 1 and PAP-1 to a streptavidin OBL without nanodisc at 30° C.
Fabrication of OBL. The sensor chip (a cover glass coated with 43 nm Au) was rinsed by DI water and ethanol for twice. Then it was annealed by hydrogen flame to further remove surface contaminants. To fabricate the streptavidin OBL, the chip was first dipped in a mixture of 1 mM thiol-PEG2k and 100 μM thiol-PEG10k-bioitin in 1×PBS overnight. The chip was dried with N2 and a silicone cell was mounted on the chip surface for holding solution. Next, the surface was incubated in 0.2 mg/mL streptavidin in PBS for 30 mins. The functionalized surface was carefully rinsed with PBS for 6 times. Note that the solution should not be completely removed from the cell during the rinsing process, and any air bubbles should be avoided as well, because the tethered protein could be irreversibly absorbed on the surface once exposed to air. The surface coverage of streptavidin on the PEG layer was measured to be 64%, and 46% of the streptavidin could oscillate effectively. The streptavidin OBL was later used to couple biotinylated proteins. To couple KcsA-Kv1.3 nanodisc, 70 μg/mL biotinylated KcsA-Kv1.3 nanodisc in nanodisc buffer was added to the cell and incubated for 30 min. Similarly, the biotinylated SRCtide was immobilized on the streptavidin OBL by incubating in 33 μg/mL SRCtide in kinase buffer containing 5 mM MgCl2 and 1 mM HEPES (pH 7.4) for 30 mins.
(§1) Binding kinetics measurement.

[2] = molecular target: T1, streptavidin OBL (Streptomyces avidinii, UniProt P22629); assay: Control experiment: small molecules injected to streptavidin OBL without nanodisc; format: binding; conditions: streptavidin OBL without nanodisc at 30° C.
T1 construct: purchased Thermo Fisher Scientific
From the text: Unlike macromolecules that are inclined to have both mass and charge changes upon binding, small molecules are more likely to have charge change with little mass change. As such, measuring charge could be more sensitive for small molecules. To highlight this advantage of SRR-OBL and its potential for drug screening, we measured two small molecule drug candidates, compound 1 and PAP-1, binding to their target KcsA-Kv1.3, which is a chimeric membrane protein. The KcsA-Kv1.3 was encapsulated in a self-assembled phospholipid bilayer nanodisc that provides a nativelike environment for the membrane proteins to retain the structure and function. Despite the importance of membrane protein as drug targets, measuring the interaction with small molecule drug candidates has been challenging for traditional mass-sensitive technologies, due to the huge mass difference between the small molecule and the membrane protein complex. Before adding samples, 40 times diluted nanodisc buffer was flowed over the surface for 200 seconds to establish the baseline. The binding of the small molecule to KcsA-Kv1.3 nanodisc caused a charge change on the OBL, which leads to an AC response. […]
(§2) Fabrication of OBL. […] The surface coverage of streptavidin on the PEG layer was measured to be 64%, and 46% of the streptavidin could oscillate effectively. […]

[3] = molecular target: T2, calmodulin (Homo sapiens, UniProt P0DP23); assay: SPR-OBL equilibrium analysis of ion binding to calmodulin OBL; conditions: equilibrium analysis of AC response, 100 times diluted PBS buffer
T2 construct: purchased Sigma Aldrich
From the text: Calmodulin is a calcium sensing protein that plays a central role in cell signaling, muscle contraction and cell division. We fabricated a calmodulin OBL and flowed different concentrations of Ca^2+ over the surface. The binding of Ca^2+ to calmodulin would lead to charge and conformation change of the OBL but with small mass change (FIG. 7a). […] Thus, we only measured the magnitude of the equilibrium state. […] We note that calmodulin is negatively charged, so Ca^2+ binding should decrease the amplitude of the AC signal. The increase of AC signal in FIG. 7b is due to artifacts in data processing when correcting the background charging. The raw data has decreased signal but much lower signal-to-noise ratio (not shown). Magnesium would also bind to calmodulin with a lower affinity compared with calcium.
as §1

[4] = molecular target: T3, Src kinase (Homo sapiens, UniProt P12931); assay: SPR-OBL phosphorylation kinetics of SRCtide by Src kinase; format: biochemical; conditions: ATP present
T3 construct: The active full length SRC protein was purchased from Abcam; purchased Abcam
From the text: Since SPR-OBL is able to record mass and charge changes at the same time, it is particularly suitable for studying complex enzymatic processes that involve multiple kinetic steps and size and charge changes. Phosphorylation is one of such reactions that includes binding of the kinase to the substrate, adding a phosphate to the substrate, and unbinding of the kinase, where each step accompanies mass or charge change. Despite the importance of phosphorylation in many basic cellular signaling processes and its close relationship with various diseases and cancers, traditional techniques including fluorescence, western blot, and mass spectrometry are unable to resolve the kinetic process in real-time, and each kinetic step needs to be measured separately, limiting the measurement efficiency. In contrast, SPR-OBL can measure multiple steps of the enzyme catalytic reaction in real-time and extract several kinetic parameters in a single measurement. We studied the phosphorylation of SRCtide as an example. SRCtide that was a peptide containing 14 amino acid with the sequence GEEPLYWSFPAKKK (SEQ ID NO: 1) was modified on a streptavidin OBL, which serves as the substrate of the enzyme Src kinase. […]
where E and S are the enzyme and substrate, ES is the complex, and P is the phosphorylated product, respectively; and k denotes the kinetic constant in each step. We measured the SPR-OBL response of different concentrations of Src in the presence of ATP and the results are shown in FIG. 8b. […]
where [E0], [S0] and [P] are concentration of SRC, SRCtide and the product, respectively. The Michaelis constant (KM) and catalytic constant (k2) can be determined to be 4.4 nM and 5.5×10^−4 s^−1 by fitting the AC component (FIG. 8d) to Eq. 1. Knowing KM and k2 the association rate constant (k1) and dissociation rate constant (k−1) can be determined by fitting the DC component (FIG. 8c) to the following equations: […]
as §2

T1 sequence (P22629 37-163 limits assumed): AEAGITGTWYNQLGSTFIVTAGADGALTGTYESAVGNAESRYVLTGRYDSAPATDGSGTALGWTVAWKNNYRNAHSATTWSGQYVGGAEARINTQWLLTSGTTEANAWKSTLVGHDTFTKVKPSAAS

Compound: O=c1ccc2c(OCCCCOc3ccccc3)c3ccoc3cc2o1 [PAP-1]
- Kd ([1]; 25° C.): 65 ± 11 µM
- ka ([1]; 25° C.): (3.8±0.6)×10^2 M^−1 s^−1
- kd ([1]; 25° C.): (2.3±0.1)×10^−2 s^−1
- Kd ([1]; 30° C.): 210 µM
- ka ([1]; 30° C.): (4.8±0.4)×10^2 M^−1s^−1
- kd ([1]; 30° C.): (9.6±1.1)×10^−2 s^−1
- response on streptavidin OBL (nonspecific binding control) [2]: only small response

- Kd [3]: 35 µM
Compound: [Mg+2] [Mg^2+, Magnesium]

- catalytic constant (k2) ([4]; fit of AC component to Eq. 1 (EQSS)): 0.00055 s⁻¹
- association rate constant (k1) ([4]; fit of DC component): 1.3×10^4
- dissociation rate constant (k−1) ([4]; fit of DC component): 2e-06 s⁻¹
Compound: SRCtide: peptide containing 14 amino acid with the sequence GEEPLYWSFPAKKK (SEQ ID NO: 1), substrate of Src kinase

- Kd [3]: 1.9 µM
Compound: [Ca+2] [Ca^2+, calcium ion]
